Reference: paper PMC7076710, “Synthesis, Identification, and Structure–Activity Relationship Analysis of GATA4 and NKX2-5 Protein–Protein Interaction Modulators” (Journal of Medicinal Chemistry, 2019)
Read-outs that look alike come from different tables or passages of the source. Each block holds one molecule with its values, some of them ahead of it.

How the values were obtained:
Assay type in all cases: cell-based
[1] = molecular target: T1, GATA4–NKX2-5 transcriptional synergy (Mus musculus, UniProt P42582+Q08369); assay: GATA4–NKX2-5 transcriptional synergy luciferase reporter assay (3xNKE reporter, COS-1 cells)
T1 construct: expressed in transfected cells; host or cells: COS-1
T1 sequence (Q08369 whole entry): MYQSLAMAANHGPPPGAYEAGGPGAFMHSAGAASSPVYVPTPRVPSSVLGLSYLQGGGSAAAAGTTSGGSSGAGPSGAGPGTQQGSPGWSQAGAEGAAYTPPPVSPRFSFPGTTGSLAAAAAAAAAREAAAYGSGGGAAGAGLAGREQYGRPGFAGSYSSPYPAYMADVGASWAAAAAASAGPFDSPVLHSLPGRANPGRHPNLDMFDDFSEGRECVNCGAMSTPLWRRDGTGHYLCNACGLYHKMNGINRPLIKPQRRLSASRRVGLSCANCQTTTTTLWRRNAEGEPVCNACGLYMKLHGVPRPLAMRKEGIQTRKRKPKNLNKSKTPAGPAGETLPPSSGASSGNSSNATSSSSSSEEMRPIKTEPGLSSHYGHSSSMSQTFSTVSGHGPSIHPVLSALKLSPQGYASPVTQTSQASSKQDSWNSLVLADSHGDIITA
T1 sequence (P42582 whole entry): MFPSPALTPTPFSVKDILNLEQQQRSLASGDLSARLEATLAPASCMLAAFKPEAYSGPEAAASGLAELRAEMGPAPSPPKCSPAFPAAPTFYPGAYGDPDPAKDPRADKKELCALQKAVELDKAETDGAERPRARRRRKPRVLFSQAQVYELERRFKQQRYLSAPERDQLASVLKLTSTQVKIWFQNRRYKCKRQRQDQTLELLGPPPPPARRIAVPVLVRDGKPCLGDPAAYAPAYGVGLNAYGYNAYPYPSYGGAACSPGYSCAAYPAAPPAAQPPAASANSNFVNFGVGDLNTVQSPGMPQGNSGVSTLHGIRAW

[2] = molecular target: T2, NKX2-5 transcriptional activity (Mus musculus, UniProt P42582); assay: NKX2-5 luciferase reporter assay (3xNKE reporter, COS-1 cells); conditions: for activity at 3 µM: read-out: NKX.3µM; for activity at 10 µM: read-out: NKX.10µM
T2 construct: expressed in transfected cells; host or cells: COS-1
T2 sequence (P42582 whole entry): as above
Protocol: (§1) To screen compounds for the GATA4–NKX2-5 interaction, we have developed a luciferase reporter assay based on their property to activate gene transcription synergistically through the NKX2-5 binding site on DNA.[28] In this assay, we transfected mammalian COS-1 cells with protein expression vectors for GATA4 and NKX2-5 proteins together with artificial luciferase reporter vector containing three high affinity binding sites for NKX2-5 (NKE). […] All 257 compounds were tested in two concentrations, 3 and 10 μM. Compounds either inhibited, enhanced, or had no effect on the GATA4–NKX2-5 transcriptional synergy. To investigate the selectivity of the active compounds, we tested their effects on NKX2-5 transcriptional activity by using the same luciferase reporter vector as in transcriptional synergy assay with three NKE sites (Figure 3B). Furthermore, we used GATA luciferase reporter assay to examine if compounds have an effect on GATA4 transcriptional activity. In this assay, we cotransfected the cells with a GATA4 protein expression vector and a reporter vector with tandem GATA4 binding sites (Figure 3C). Previously we have reported that compound 1 inhibited the GATA4–NKX2-5 transcriptional synergy at micromolar concentrations (IC50 = 3 μM).[29]
(§2) The plasmids expressing mouse GATA4 protein, pMT2-GATA4, and empty pMT2 were gifts from D. B. Wilson (Department of Pediatrics, St. Louis Children’s Hospital, St. Louis, MO).[44] The plasmids expressing mouse NKX2-5 protein, pMT2-NKX2-5, have been described earlier.[28] The luciferase reporter plasmid used in GATA4–NKX2-5 transcriptional synergy assay and NKX transcriptional assay, pGL3-3xHA, contains three high affinity binding sites for NKX2-5.[28] The luciferase reporter plasmid used in GATA transcriptional assay, NP-112, contains tandem GATA-sites and minimal promoter of rat brain natriuretic peptide (BNP) gene.[45] The pGL3-BNP luciferase reporter containing −534/+4 bp rat BNP proximal promoter described previously was used in hypertrophy assay.[46]
(§3) The primary screening assay of compounds’ effect on GATA4–NKX2-5 transcriptional synergy and COS-1 cell culturing has been described earlier.[33] […] (Kinnunen et al., unpublished observation). Briefly, COS-1 cells were seeded at 14 000 cells/well in Isoplate-96 microplates (PerkinElmer, Turku, Finland) and grown overnight. The cells were transfected with the luciferase reporter plasmid pGL3-3xHA 100 ng/well and equal amounts of expression plasmids pMT2-GATA4 and pMT2-NKX2-5 total 50 ng/well. To verify the synergistic effect, the cells were transfected with pMT2-GATA4 or pMT2-NKX2-5 25 ng/well, and the total DNA concentration was adjusted to 50 ng/well with empty pMT2 plasmid. In NKX2-5 and GATA4 luciferase reporter assays, the cells were transfected with reporter plasmid pGL3-3xHA or NP-112 (100 ng/well) and expression plasmid pMT2-NKX2-5 or pMT2-GATA4 (25 ng/well). The ratio of DNA/transfection reagent (Fugene 6, Promega) was 1:3 in all assays. The transfections were performed in serum and antibiotics free media for 6 h. The cells were treated with compounds or vehicle (0.1% DMSO) for 24 h, and the luminescence was measured using neolite Reporter Gene Assay System (PerkinElmer, Turku, Finland) and Victor2 plate reader (PerkinElmer, Turku, Finland).
(§4) Raw luciferase data were analyzed in Excel, and clear outliers were removed from triplicates by using the Grubb’s test. Data analysis was performed using R.[49] The luciferase data were first normalized on the basis of the combined mean value of controls. For data visualization and creation of figures, the following R packages were used: ggplot2, cowplot, RColorBrewer, and pheatmap. The heatmaps of the toxicity data were produced with GraphPad Prism 7.00 (GraphPad Software, La Jolla, CA). Statistical significance of luciferase reporter assay data was evaluated by randomized block analysis of variance followed by Dunnett’s post hoc test. […]

[3] = molecular target: T3, GATA4 transcriptional activity (Mus musculus, UniProt Q08369); assay: GATA4 luciferase reporter assay (tandem GATA-site reporter, COS-1 cells)
T3 construct: expressed in transfected cells; host or cells: COS-1
T3 sequence (Q08369 whole entry): as the sequence (Q08369 whole entry) above
Protocol: as §1, §2, §3, §4

COS-1 cells [4] = assay: LDH assay (necrosis)
From the text: (§5) To investigate the toxicity as a potential cause of decreased or increased activity in luciferase reporter gene assays, we tested a set of 40 active compounds in the COS-1 cell line used for the luciferase assays. Concentration-dependent toxic effects were investigated using the lactate dehydrogenase (LDH) assay to detect necrosis and the 3-(4,5-dimethylthiazol-2-yl)-2,5-diphenyltetrazolium bromide (MTT) assay as a measure of cell viability. […] For the data analysis, compounds were classified as toxic (Figures 5 and 7) if they induced a >10% decrease in cell viability in the MTT assay at the concentration of 10 μM. The most toxic compounds (35a, 35d, 54, 58, and 63–65) in the MTT assay all contained a phenyl substituent in the southern part ring, while the ortho-nitrophenyl-derivative 39g and the phenyl-substituted thiophene 47t were nontoxic. Higher flexibility in the central parts of the ethers (35a, 35d) and N-acylated amines (58, 64) might contribute to their toxicity, because less rigid compounds are more likely to have affinity to various biological targets. Such interactions can cause toxicity. To confirm and validate the results from MTT assays, we tested three nontoxic (2, 47s, and 72) and three toxic (1, 35a, and 58) compounds in a cell viability assay measuring intracellular ATP content.
(§6) Figure 5 Effects of selected compounds on COS-1 cell viability. (A) Compound-induced necrosis was quantified with the LDH assay after a 24-h compound exposure. The data are presented as cytotoxicity percentage (% of maximal LDH release). (B) Cell viability was analyzed with the MTT assay after a 24-h compound exposure. (A,B) The data are means from 2–3 independent experiments with 3 replicate wells in each and are presented as % of control (vehicle-treated cells). The compounds have been grouped on the basis of the structure of the central part: a, amide; b, ether; c, N-acylated amine; d, amine; and e, imine. (C) The effects of selected compounds on cell viability as determined by ATP content after a 24-h compound exposure. The data are mean + SEM from three independent experiments and are presented as % of vehicle-treated cells.
(§7) For toxicity screening, COS-1 cells were cultured in DMEM (Sigma-Aldrich, Steinheim, Germany) supplemented with 10% fetal bovine serum, 100 U/mL penicillin, and 100 μg/mL streptomycin (all from Gibco, Thermo Scientific) at 37 °C with 5% CO2. The cells were plated on 96-well plates at 10 000 cells/well and exposed to test compounds at a concentration range of 1–30 μM on the following day. After a 24-h compound treatment, lactate dehydrogenase (LDH) and 3-(4,5-dimethylthiazol-2-yl)-2,5-diphenyltetrazolium bromide (MTT) assays were carried out as described previously.[48] Briefly, LDH activity was determined from 50 μL samples of cell culture medium, to which 50 μL of substrate solution [1.3 mM β-nicotinamide-adenine dinucleotide, 660 μM iodonitrotetrazolium, 54 mM L(+)-lactic acid, and 280 μM phenazine methosulfate in 0.2 M Tris-HCl, pH 8.2, all from Sigma-Aldrich] was added, and the plate was incubated for 30 min at room temperature. The reaction was stopped with acetic acid (final concentration 333 mM), and absorbance was measured at 490 nm. The absorbance values of the samples were normalized to maximal LDH release and spontaneous LDH release determined on the same plate. Mitochondrial metabolic activity was quantified by incubating the cells with 0.5 mg/mL MTT (from Sigma-Aldrich) for 2 h at 37 °C with 5% CO2, whereafter culture medium was removed and formazan crystals were dissolved in DMSO. The absorbance was measured at 550 nm, and absorbance at 650 nm was subtracted as background.

COS-1 cells [5] = assay: MTT assay (cell viability)
From the text: as §5, §6, §7

[6] = COS-1, 3 µM, luciferase reporter activity, % of control
[7] = COS-1, 10 µM, luciferase reporter activity, % of control
[8] = COS-1, compound 3 µM, luciferase reporter activity, spread in separate STDEV column
[9] = COS-1, compound 10 µM, luciferase reporter activity, spread in separate STDEV column
[10] = 3 µM compound, GATA4–NKX2-5 transcriptional synergy reporter, COS-1 cells
[11] = 3 µM compound, NKX2-5 luciferase reporter, COS-1 cells
[12] = 3 µM compound, GATA4 luciferase reporter, COS-1 cells
[13] = COS-1, GATA4-NKX2-5 transcriptional synergy luciferase reporter assay, compound at 3 µM
[14] = COS-1, GATA4-NKX2-5 transcriptional synergy luciferase reporter assay, compound at 10 µM

Structure (SMILES): Cc1onc(-c2ccccc2)c1C(=O)Nc1ccc(-c2ccccc2)cc1 [Compound 4f]
activity at 3 µM [1, 6]: 72.7%
activity at 10 µM [1, 7]: 112%
activity at 3 µM [2, 6]: 91%
activity at 3 µM [3, 6]: 102%
activity at 10 µM [3, 7]: 114%

Structure (SMILES): Cc1onc(-c2ccccc2)c1C(=O)Nc1nc(C(C)(C)C)cs1 [Compound 4k, N-[4-(tert-Butyl)thiazol-2-yl]-5-methyl-3-phenylisoxazole-4-carboxamide]
activity at 3 µM [1, 8]: 117%
activity at 10 µM [1, 9]: 115%
activity at 3 µM [2, 8]: 97.7%
activity at 3 µM [3, 8]: 109%
activity at 10 µM [3, 9]: 114%

Structure (SMILES): Cc1onc(-c2ccccc2)c1C(=O)Nc1ccc(C(=O)OCCCC#N)cc1 [Compound 10b]
activity at 3 µM [1, 8]: 93%
activity at 3 µM [2, 8]: 105%
activity at 3 µM [3, 8]: 103%
activity at 10 µM [3, 9]: 114%

Structure (SMILES): Cc1onc(-c2ccccc2)c1C(=O)Nc1ccc(C(=O)OCCCCC#N)cc1 [Compound 10c]
activity at 3 µM [1, 8]: 101%
activity at 3 µM [2, 8]: 102%
activity at 10 µM [2, 9]: 147%
activity at 3 µM [3, 8]: 109%
activity at 10 µM [3, 9]: 102%

Structure (SMILES): CCN(CC)c1ccc(N(C)C(=O)c2c(-c3ccccc3)noc2C)cc1 [Compound 25a]
activity at 3 µM [1, 6]: 78.1%
activity at 10 µM [2, 7]: 101%

Structure (SMILES): CCN(CC)c1ccc(NC(=O)c2c(-n3cccc3)sc(C)c2C)cc1 [Compound 56]
activity at 3 µM [1, 10]: 93.8%
activity at 3 µM [2, 11]: 102%

Structure (SMILES): Cc1cc(-c2onc(C)c2C(=O)Nc2ccc3oc(-c4ccccc4)cc(=O)c3c2)no1 [Compound 73]
activity at 3 µM [1, 10]: 107%
activity at 10 µM ([1]; 10 µM compound, GATA4–NKX2-5 transcriptional synergy reporter, COS-1 cells): 114%
activity at 3 µM [3, 12]: 127%
activity at 10 µM ([3]; 10 µM compound, GATA4 luciferase reporter, COS-1 cells): 123%

Continued, in another order:

activity at 3 µM [1, 6]: 90.9%
activity at 3 µM [2, 6]: 111%
activity at 3 µM [3, 6]: 106%
Structure (SMILES): CCC(=O)c1ccc(OCc2c(-c3ccccc3)noc2C)cc1 [Compound 34a, 1-[4-[(5-Methyl-3-phenylisoxazol-4-yl)methoxy]phenyl]propan-1-one]

activity at 3 µM [1, 10]: 85.5%
activity at 3 µM [2, 11]: 82.5%
activity at 3 µM [3, 12]: 73.9%
Structure (SMILES): Cc1onc(-c2ccccc2)c1COc1ccc(C(=O)OCCCC#N)cc1 [Compound 35b, 3-Cyanopropyl 4-[(5-Methyl-3-phenylisoxazol-4-yl)methoxy]benzoate]

activity at 3 µM ([1]; COS-1, 3 µM, luciferase reporter activity relative to control): 93.4%
Structure (SMILES): CCN(CC)c1ccc(NC(=O)c2c(-c3cccc([N+](=O)[O-])c3)noc2C)cc1 [Compound 39g]
LDH.1µM (COS-1 cells [4]; 1 µM): 1.8
LDH.3µM (COS-1 cells [4]; 3 µM): 1.19
LDH.10µM (COS-1 cells [4]; 10 µM): -0.41
LDH.30µM (COS-1 cells [4]; 30 µM): -0.68
MTT.1µM (COS-1 cells [5]; 1 µM, cell viability): 105.86
MTT.3µM (COS-1 cells [5]; 3 µM, cell viability): 108.44
MTT.10µM (COS-1 cells [5]; 10 µM, cell viability): 106.4
MTT.30µM (COS-1 cells [5]; 30 µM, cell viability): 104.14
toxicity class in the MTT assay (COS-1 cells [5]; 24-h exposure, classified at 10 μM): nontoxic (nontoxic compounds (cell viability >90%))

activity at 3 µM [1, 8]: 110%
activity at 3 µM [2, 8]: 108%
Structure (SMILES): CCN(CC)c1ccc(NC(=O)c2cn(C)nc2-c2cc(C)on2)cc1 [Compound 47f]

activity at 3 µM [1, 8]: 116%
activity at 3 µM [2, 8]: 116%
activity at 10 µM [2, 9]: 114%
Structure (SMILES): CCN(CC)c1ccc(NC(=O)c2cn(C)cc2-c2cc(C)on2)cc1 [Compound 47m]

activity at 3 µM [1, 13]: 85.4%
activity at 10 µM [1, 14]: 88.3%
Structure (SMILES): CCN(CC)c1ccc(NC(=O)c2c(-c3cccc(Br)c3)noc2C)c(C)c1 [SI131]

activity at 3 µM [1, 13]: 85.4%
activity at 10 µM [1, 14]: 61.6%
Structure (SMILES): CCN(CC)c1ccc(NC(=O)c2c(-c3ccccc3)noc2C)c(C)c1 [SI132]

activity at 3 µM [1, 13]: 88.6%
activity at 10 µM [1, 14]: 86.3%
Structure (SMILES): Cc1ccc(NC(=O)c2c(-c3cc(C)on3)noc2C)cc1 [SI133]

activity at 3 µM [1, 13]: 82.9%
activity at 10 µM [1, 14]: 87.7%
Structure (SMILES): Cc1cc(-c2noc(C)c2C(=O)Nc2ccc(Cl)cc2)no1 [SI134]

activity at 3 µM [1, 13]: 98.8%
activity at 10 µM [1, 14]: 101%
Structure (SMILES): Cc1cc(-c2noc(C)c2C(=O)Nc2ccc(C(F)(F)F)cc2)no1 [SI135]

activity at 3 µM [1, 13]: 83%
activity at 10 µM [1, 14]: 82.5%
Structure (SMILES): Cc1cc(-c2noc(C)c2C(=O)Nc2cccc(Cl)c2)no1 [SI136]
